Measurements as given in patent US6667311B2, “Nitrogen substituted biaryl purine derivatives as potent antiproliferative agents” (Albany Molecular Research, Inc., priority 2001, dated 2003).

Tests used:
Type in all cases: cell-based, human
MCF7 = experiment: NCI growth inhibition, MCF7; conditions: MCF7 (Breast)
MDA-N = experiment: NCI growth inhibition, MDA-N; conditions: MDA-N (Breast)
SNB-19 = experiment: NCI growth inhibition, SNB-19; conditions: SNB-19 (CNS)
SNB-75 = experiment: NCI growth inhibition, SNB-75; conditions: SNB-75 (CNS)
HT29 = experiment: NCI growth inhibition, HT29; conditions: HT29 (Colon)
HL-60 (TB) = experiment: NCI growth inhibition, HL-60 (TB); conditions: HL-60(TB) (Leukemia)
RPMI-8226 = experiment: NCI growth inhibition, RPMI-8226; conditions: RPMI-8226 (Leukemia)
LOX IMVI = experiment: NCI growth inhibition, LOX IMVI; conditions: LOX IMVI (Melanoma)
M14 = experiment: NCI growth inhibition, M14; conditions: M14 (Melanoma)
NCI-H23 = experiment: NCI growth inhibition, NCI-H23; conditions: NCI-H23 (Non-Small Cell Lung)
NCI-H460 = experiment: NCI growth inhibition, NCI-H460; conditions: NCI-H460 (Non-Small Cell Lung)
OVCAR-3 = experiment: NCI growth inhibition, OVCAR-3; conditions: OVCAR-3 (Ovarian)
OVCAR-5 = experiment: NCI growth inhibition, OVCAR-5; conditions: OVCAR-5 (Ovarian)
UO-31 = experiment: NCI growth inhibition, UO-31; conditions: UO-31 (Renal)

## CC(=O)N[C@H]1CC[C@H](Nc2nc(NCc3ccc(-c4ccccc4)nc3)c3ncn(C(C)C)c3n2)CC1 [Compound 87]
MCF7
  GI50: 40 nM
MDA-N
  GI50: 14 nM
SNB-19
  GI50: 38 nM
SNB-75
  GI50: 12 nM
HT29
  GI50: < 10 nM
HL-60 (TB)
  GI50: < 10 nM
RPMI-8226
  GI50: < 10 nM
LOX IMVI
  GI50: 27 nM
M14
  GI50: < 10 nM
NCI-H23
  GI50: 22 nM
NCI-H460
  GI50: 220 nM
OVCAR-3
  GI50: 50 nM
OVCAR-5
  GI50: 51 nM
UO-31
  GI50: 16 nM
